A value given as a limit tells only on which side of the number the result lay.

Assay [1] addresses T1, Serine/threonine-protein kinase STK11 (Homo sapiens) (UniProt Q15831).
T1 sequence (whole entry): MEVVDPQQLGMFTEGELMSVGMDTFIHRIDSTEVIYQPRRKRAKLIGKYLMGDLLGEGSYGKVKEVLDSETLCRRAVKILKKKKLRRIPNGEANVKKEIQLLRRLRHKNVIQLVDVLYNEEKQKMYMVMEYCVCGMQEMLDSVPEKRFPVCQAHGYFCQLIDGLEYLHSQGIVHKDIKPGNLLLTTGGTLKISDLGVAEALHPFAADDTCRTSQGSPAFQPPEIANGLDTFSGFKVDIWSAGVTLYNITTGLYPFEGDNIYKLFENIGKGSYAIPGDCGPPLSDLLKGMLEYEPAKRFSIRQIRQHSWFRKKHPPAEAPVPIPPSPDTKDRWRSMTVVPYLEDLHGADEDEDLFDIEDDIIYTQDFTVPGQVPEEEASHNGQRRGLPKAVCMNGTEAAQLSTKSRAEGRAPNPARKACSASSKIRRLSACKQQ
Description: Selectivity interaction (Upstate Kinase Profiler service (Millipore)) EUB0000056c STK11. The note with it: at 1 µM.

The target of assay [2] is Macrophage colony-stimulating factor 1 receptor (Homo sapiens) (UniProt P07333). Nature of the assay: Selectivity interaction (KinaseProfiler screening (Millipore)) EUB0000601a CSF1R. To be noted: at 3 µM.
Macrophage colony-stimulating factor 1 receptor (Homo sapiens), sequence (P07333 whole entry): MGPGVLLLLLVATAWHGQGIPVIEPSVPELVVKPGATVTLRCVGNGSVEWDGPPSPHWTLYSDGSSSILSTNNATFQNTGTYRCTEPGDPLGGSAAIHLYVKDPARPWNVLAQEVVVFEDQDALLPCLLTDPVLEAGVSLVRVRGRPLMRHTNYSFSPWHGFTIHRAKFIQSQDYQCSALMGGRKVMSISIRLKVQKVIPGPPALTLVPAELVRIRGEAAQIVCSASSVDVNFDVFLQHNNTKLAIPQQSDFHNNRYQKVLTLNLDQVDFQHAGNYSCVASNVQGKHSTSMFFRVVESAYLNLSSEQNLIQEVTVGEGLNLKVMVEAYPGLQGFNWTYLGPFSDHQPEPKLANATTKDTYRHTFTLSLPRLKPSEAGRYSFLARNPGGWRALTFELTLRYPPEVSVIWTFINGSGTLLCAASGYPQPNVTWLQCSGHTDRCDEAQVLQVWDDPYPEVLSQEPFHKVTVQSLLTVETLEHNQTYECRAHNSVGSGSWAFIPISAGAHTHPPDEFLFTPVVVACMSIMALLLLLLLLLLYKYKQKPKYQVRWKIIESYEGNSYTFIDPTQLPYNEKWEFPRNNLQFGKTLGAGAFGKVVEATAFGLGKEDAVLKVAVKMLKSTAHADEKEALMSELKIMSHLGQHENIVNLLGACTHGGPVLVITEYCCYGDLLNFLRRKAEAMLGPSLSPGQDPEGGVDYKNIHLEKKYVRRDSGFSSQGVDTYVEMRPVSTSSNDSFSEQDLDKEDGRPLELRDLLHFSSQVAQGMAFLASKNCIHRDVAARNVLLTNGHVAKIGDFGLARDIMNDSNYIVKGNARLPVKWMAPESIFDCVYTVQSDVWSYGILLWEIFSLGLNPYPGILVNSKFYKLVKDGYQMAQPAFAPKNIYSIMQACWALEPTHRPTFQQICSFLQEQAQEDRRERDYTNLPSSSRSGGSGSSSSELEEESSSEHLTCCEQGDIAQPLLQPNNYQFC
The target in assay [3] is cAMP-dependent protein kinase catalytic subunit beta (Homo sapiens) (UniProt P22694). The note with it: at 10 µM.
For assay [4], the system named is ALK tyrosine kinase receptor (Homo sapiens), Q9UM73 [C1156Y]. Description: (§1) Selectivity interaction (KinomeScan (DiscoverX)) EUB0001049a ALK. The note with it: at 1 µM.
ALK tyrosine kinase receptor (Homo sapiens), Q9UM73 [C1156Y], sequence (Q9UM73 whole entry C1156Y, looked up): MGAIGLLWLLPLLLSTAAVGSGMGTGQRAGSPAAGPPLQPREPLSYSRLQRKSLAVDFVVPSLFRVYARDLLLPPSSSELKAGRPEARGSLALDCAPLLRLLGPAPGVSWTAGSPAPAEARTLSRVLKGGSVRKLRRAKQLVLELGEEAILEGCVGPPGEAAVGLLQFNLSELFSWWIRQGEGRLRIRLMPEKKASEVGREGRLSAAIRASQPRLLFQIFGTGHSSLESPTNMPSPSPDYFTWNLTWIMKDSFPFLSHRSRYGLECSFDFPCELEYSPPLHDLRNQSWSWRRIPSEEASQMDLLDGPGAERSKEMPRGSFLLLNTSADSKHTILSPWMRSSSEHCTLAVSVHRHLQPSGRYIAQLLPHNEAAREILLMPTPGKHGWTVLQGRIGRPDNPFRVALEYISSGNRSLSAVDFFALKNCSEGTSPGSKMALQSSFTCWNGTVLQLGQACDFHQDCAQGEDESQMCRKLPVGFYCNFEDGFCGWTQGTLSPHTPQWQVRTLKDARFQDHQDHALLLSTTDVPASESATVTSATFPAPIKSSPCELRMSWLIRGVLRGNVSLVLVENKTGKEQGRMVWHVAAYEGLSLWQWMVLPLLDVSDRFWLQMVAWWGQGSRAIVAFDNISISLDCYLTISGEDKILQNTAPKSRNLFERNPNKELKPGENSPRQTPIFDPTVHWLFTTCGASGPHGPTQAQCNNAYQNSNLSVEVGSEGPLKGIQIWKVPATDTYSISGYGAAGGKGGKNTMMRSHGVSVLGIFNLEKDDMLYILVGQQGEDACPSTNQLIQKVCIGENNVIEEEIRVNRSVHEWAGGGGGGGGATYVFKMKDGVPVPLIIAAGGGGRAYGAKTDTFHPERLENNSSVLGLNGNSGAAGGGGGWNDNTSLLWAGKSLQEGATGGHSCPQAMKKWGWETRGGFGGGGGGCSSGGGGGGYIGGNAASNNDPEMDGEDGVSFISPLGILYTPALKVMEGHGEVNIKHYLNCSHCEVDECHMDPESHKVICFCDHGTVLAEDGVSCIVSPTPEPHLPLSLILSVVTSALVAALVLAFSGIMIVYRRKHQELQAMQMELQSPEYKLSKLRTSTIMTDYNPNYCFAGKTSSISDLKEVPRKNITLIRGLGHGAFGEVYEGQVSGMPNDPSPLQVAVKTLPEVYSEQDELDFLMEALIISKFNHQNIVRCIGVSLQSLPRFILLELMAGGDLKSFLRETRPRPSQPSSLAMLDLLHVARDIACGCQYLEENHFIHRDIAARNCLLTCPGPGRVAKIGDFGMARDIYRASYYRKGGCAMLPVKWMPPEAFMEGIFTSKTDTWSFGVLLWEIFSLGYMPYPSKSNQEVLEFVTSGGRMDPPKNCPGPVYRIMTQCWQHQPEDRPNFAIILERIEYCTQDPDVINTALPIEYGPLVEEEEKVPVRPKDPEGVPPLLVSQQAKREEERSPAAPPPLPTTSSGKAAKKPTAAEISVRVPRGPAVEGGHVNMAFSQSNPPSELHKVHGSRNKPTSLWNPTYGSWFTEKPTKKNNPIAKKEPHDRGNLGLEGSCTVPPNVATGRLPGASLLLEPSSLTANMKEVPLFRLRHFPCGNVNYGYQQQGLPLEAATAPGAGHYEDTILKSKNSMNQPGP
The test system of assay [5] is ALK tyrosine kinase receptor (Homo sapiens), Q9UM73 [L1196M]. The description is as §1. To be noted: at 1 µM.
ALK tyrosine kinase receptor (Homo sapiens), Q9UM73 [L1196M], sequence (Q9UM73 whole entry L1196M, looked up): as the sequence (Q9UM73 whole entry C1156Y, looked up) above, with Y1156C, L1196M counted along it
Assay [6] has as its target ALK tyrosine kinase receptor (Homo sapiens, UniProt Q9UM73). The assay is described as §1. The note with it: at 1 µM.
Assay [7] addresses Tyrosine-protein kinase Fes/Fps (Homo sapiens) (UniProt P07332). Description: Selectivity interaction (KinomeScan (DiscoverX)) EUB0001049a FES. To be noted: at 1 µM.
For assay [8], the target named is Tyrosine-protein kinase receptor Tie-1 (Homo sapiens) (UniProt P35590). Nature of the assay: Selectivity interaction (KinomeScan (DiscoverX)) EUB0000655a TIE1. The note with it: at 10 µM.
Tyrosine-protein kinase receptor Tie-1 (Homo sapiens), sequence (P35590 whole entry): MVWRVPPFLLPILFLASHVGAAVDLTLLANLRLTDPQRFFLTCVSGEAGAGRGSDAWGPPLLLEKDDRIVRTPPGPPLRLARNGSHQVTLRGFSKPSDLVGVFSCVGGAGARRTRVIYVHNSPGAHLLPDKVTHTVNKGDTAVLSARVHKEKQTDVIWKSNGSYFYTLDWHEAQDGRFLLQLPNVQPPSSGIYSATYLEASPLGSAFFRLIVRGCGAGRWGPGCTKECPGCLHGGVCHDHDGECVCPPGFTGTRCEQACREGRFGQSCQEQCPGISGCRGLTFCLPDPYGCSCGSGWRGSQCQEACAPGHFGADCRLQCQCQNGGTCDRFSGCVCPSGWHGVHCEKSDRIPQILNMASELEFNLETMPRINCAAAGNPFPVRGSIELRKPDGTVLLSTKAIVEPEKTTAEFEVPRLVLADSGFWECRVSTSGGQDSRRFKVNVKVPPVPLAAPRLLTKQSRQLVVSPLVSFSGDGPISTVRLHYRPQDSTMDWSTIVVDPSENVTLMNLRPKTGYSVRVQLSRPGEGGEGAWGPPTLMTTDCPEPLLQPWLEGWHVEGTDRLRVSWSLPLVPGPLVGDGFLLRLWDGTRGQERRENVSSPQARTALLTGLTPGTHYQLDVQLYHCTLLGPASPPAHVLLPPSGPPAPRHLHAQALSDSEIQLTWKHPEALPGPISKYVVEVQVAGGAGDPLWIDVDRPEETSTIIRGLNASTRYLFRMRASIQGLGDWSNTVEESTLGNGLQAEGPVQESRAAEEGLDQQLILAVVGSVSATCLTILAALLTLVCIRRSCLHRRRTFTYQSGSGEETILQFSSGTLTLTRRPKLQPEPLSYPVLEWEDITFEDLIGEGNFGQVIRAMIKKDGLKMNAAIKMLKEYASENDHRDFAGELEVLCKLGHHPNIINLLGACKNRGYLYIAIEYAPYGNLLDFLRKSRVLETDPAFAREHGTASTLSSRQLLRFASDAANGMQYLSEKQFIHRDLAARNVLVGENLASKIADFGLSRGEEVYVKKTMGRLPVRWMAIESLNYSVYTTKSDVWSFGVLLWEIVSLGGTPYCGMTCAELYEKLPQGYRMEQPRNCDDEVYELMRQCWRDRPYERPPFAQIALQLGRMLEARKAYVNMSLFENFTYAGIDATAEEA
In assay [9] the target is T2, Testis-specific serine/threonine-protein kinase 2 (Homo sapiens) (UniProt Q96PF2).
T2 sequence (whole entry): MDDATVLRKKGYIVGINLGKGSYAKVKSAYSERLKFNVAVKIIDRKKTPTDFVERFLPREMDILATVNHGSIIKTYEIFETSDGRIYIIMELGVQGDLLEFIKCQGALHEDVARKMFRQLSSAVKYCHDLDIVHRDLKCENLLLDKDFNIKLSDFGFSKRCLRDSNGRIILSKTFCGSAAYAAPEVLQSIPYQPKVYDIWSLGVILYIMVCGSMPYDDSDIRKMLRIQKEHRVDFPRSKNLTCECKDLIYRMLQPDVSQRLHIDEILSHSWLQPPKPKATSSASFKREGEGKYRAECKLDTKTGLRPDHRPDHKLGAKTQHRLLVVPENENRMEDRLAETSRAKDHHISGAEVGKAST
Description: Selectivity interaction (Kinase screening (Nanosyn)) EUB0000604a TSSK2.

Assay [10] has as its target Calcium/calmodulin-dependent protein kinase type II subunit delta (Homo sapiens) (UniProt Q13557). Description: Selectivity interaction (KinomeScan (DiscoverX)) EUB0000666a CAMK2D. To be noted: at 10 µM.
For assay [11], the system named is Angiopoietin-1 receptor (Homo sapiens), Q02763 [R849W]. Nature of the assay: (§2) Selectivity interaction (LanthaScreen Eu Kinase Binding Assay) EUB0001632a TEK. To be noted: at 10 µM. For orientation: In TR-FRET formats the signal depends on donor and acceptor labels being close together.
For assay [12], the system named is Angiopoietin-1 receptor (Homo sapiens), Q02763 [Y1108F]. Described as §2. To be noted: at 10 µM.
The target of assay [13] is Serine/threonine-protein kinase 24 (Homo sapiens) (UniProt Q9Y6E0). Description: Selectivity interaction (ActivX KiNativ screen (kinase selectivity in THP-1 cell lysates)) EUB0000639a STK24. It is filed as subcellular. To be noted: lysate, at 5 µM.
Serine/threonine-protein kinase 24 (Homo sapiens), sequence (Q9Y6E0 whole entry, looked up, canonical isoform): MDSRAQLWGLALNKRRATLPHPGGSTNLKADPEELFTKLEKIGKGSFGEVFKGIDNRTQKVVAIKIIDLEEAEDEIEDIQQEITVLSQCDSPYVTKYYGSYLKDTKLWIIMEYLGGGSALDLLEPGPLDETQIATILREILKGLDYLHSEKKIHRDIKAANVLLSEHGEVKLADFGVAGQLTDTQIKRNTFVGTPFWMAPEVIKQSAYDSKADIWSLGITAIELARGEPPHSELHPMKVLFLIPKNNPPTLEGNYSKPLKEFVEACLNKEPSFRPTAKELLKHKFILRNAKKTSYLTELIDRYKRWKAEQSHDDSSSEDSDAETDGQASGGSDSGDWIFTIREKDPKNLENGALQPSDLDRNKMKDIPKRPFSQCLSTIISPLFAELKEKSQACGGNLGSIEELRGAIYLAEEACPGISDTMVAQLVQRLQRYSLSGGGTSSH
Assay [14] addresses T3, Phosphatidylinositol 4,5-bisphosphate 3-kinase catalytic subunit delta isoform (Homo sapiens) (UniProt O00329).
T3 sequence (whole entry): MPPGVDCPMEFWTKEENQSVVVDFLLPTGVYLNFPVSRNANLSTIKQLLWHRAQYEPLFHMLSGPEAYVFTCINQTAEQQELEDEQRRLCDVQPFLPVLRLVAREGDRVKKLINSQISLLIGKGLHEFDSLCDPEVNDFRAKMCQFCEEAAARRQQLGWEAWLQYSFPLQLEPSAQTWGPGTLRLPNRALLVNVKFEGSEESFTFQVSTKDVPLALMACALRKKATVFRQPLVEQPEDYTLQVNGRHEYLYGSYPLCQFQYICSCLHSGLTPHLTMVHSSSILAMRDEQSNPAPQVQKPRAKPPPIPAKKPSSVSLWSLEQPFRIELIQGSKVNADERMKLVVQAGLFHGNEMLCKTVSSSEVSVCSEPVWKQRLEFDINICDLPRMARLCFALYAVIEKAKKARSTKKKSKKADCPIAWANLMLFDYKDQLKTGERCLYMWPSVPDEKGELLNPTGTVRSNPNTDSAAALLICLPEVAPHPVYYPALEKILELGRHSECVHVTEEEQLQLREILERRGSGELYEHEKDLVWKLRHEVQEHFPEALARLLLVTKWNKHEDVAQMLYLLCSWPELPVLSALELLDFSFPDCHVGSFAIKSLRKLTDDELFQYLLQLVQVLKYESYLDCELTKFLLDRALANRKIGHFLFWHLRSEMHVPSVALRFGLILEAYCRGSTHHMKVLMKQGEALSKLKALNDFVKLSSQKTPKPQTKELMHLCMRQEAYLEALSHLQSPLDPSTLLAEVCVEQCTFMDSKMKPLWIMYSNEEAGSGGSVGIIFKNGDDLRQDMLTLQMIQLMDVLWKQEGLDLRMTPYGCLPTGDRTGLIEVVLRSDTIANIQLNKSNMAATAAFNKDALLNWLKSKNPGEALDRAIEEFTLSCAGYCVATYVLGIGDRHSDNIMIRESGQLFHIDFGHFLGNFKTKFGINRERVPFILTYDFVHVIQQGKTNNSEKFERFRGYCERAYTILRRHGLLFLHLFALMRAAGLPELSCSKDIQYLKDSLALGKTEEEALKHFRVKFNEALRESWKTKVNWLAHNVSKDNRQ
Description: Selectivity interaction (Kinase panel (Invitrogen)) EUB0000639a PIK3CD. The note with it: at 200 nM.

For assay [15], the target named is cAMP-dependent protein kinase catalytic subunit alpha (Homo sapiens, UniProt P17612). Nature of the assay: Selectivity interaction (Kinase panel (33PanQinase(R) Activity Assay)) EUB0000877a PRKACA.

Calcium/calmodulin-dependent protein kinase type II subunit delta (Homo sapiens), sequence (Q13557 whole entry): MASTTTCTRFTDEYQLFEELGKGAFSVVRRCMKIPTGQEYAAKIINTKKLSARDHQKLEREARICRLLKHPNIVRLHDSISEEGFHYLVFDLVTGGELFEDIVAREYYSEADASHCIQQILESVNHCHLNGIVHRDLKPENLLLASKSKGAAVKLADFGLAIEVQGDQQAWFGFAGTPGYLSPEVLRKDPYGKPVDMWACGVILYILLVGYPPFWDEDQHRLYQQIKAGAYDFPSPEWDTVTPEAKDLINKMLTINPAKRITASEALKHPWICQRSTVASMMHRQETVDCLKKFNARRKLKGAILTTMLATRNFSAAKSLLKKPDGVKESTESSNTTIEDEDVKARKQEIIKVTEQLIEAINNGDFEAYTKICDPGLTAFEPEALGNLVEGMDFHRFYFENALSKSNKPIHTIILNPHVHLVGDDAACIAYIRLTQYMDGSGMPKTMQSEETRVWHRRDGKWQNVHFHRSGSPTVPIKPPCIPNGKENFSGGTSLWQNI

As to `Cc1ccc(-c2ccc3c(ccc4sc5c(c43)NC[C@@H](C)NC5=O)n2)cn1`, the % of inhibition in [1] was -15%. In the case of `CCc1cc(Nc2nccc(-c3c(-c4ccc(OC)c(C(=O)Nc5c(F)cccc5F)c4)nc4ccccn34)n2)c(OC)cc1N1CCC(N2CCN(S(C)(=O)=O)CC2)CC1`, the % of inhibition in [2] was determined as 50%.

For `CCN(CC)CCCCNc1ncc2cc(-c3cc(OC)cc(OC)c3)c(NC(=O)NC(C)(C)C)nc2n1`, in assay [3], the % of control came to 100%. Turning to `COc1cc(Nc2nc(C)cc(-c3cnn4nc(OC)ccc34)n2)cc(C(F)(F)F)c1`, the % of control in assay [4] is 89%; in assay [5] it was 100%; in assay [6], 94%; in assay [7], 95%.

`CN(C)CCOc1ccc(-c2nc(-c3ccncc3)c(-c3ccc4c(c3)CC/C4=N\O)[nH]2)cc1` registered a % of control in [8] of 44%. Turning to `Cc1cnc(Nc2ccc(F)cc2Cl)nc1-c1c[nH]c(C(=O)N[C@H](CO)c2cccc(Cl)c2)c1`, the % of inhibition in [9] stood at 3%. On to `O=C(NOC[C@H](O)CO)c1ccc(F)c(F)c1Nc1ccc(I)cc1F`, for which, in assay [10], the % of control amounted to 100%.

As for `Cn1cc(-n2cnc3c(NCc4nc5cc(Cl)c(Cl)cc5[nH]4)nc(N4CCOCC4)nc32)cn1`, the % of inhibition in assay [11] was -63.9%; in assay [12], -24.4%. Consider `CC[C@@H]1[C@H](F)C(=O)N[C@@H]1COc1nccc2cc(C(N)=O)c(OC)cc12` [ZIMLOVISERTIB], for which the % of inhibition in [13] was found to be 3.2%; in assay [14], 1.5%. Broadly, the IC50 is the point on the concentration scale where inhibition reaches its midpoint. Low values mean higher potency, high ones lower potency. With `CCC(=O)N1CC[C@H](Nc2ncnc3c2CN(c2cnc(OC)c(C(F)(F)F)c2)CC3)C1` [LENIOLISIB], the IC50 in assay [15] was above 10 µM.

(Values after ChEMBL document CHEMBL5465560, “Selectivity Literature for EUbOPEN Chemogenomic Library” (2024).)
